In patent US20160219881A1, “HERBICIDALLY ACTIVE 2-HALOGEN-4-ALKYNYL-PHENYL-PYRAZOLIDINE-DIONE OR PYRROLIDINE-DIONE DERIVATIVES” (SYNGENTA LIMITED, priority 2013, published 2016):

Experiments:
Format in all cases: in vivo
[1] = tested on: Echinochloa crus-galli (ECHCG); assay: Test 1A glasshouse assay, pre-emergence herbicidal activity; conditions: 312 h, 250 g/ha, 13 days after application, read-out: Pre-Emergence Herbicidal Activity (% Phytotoxicity) ECHCG
[2] = tested on: Alopecurus myosuroides (ALOMY); assay: Test 1A glasshouse assay, post-emergence herbicidal activity; conditions: 312 h, 13 days after application, read-out: Post-Emergence Herbicidal Activity (% Phytotoxicity) ALOMY
[3] = tested on: Echinochloa crus-galli (ECHCG); assay: as above; conditions: 312 h, 13 days after application, read-out: Post-Emergence Herbicidal Activity (% Phytotoxicity) ECHCG
[4] = tested on: Alopecurus myosuroides (ALOMY); assay: Biological Example 3 (Test 2 glasshouse assay), post-emergence herbicidal activity
Method: (§1) Seeds of a variety of monocotyledonous and dicotyledonous test plants are sown in standard soil in pots. The plants are cultivated for one day (for pre-emergence) or for about 12 days (range=10-13 days) (for post-emergence) under controlled conditions in a glasshouse (warm climate species at 24/18° C., cool climate species at 20/16° C., both at day/night; 16 hours light; 65% humidity).
(§2) An “instant formulation”, known as the “IF50”, containing 50 g/litre (i.e. 5% w/v) of the “technical” (i.e. unformulated) active ingredient is prepared by dissolving the active ingredient in a mixture of organic solvents and emulsifier, details of which are provided in the Table below. This IF50 is then mixed with a small, variable amount of acetone to aid dissolution, before addition of a 0.2% v/v aqueous solution of the adjuvant X-77 (which is a mixture of alkyl aryl polyoxyethylene glycols and free fatty acids in isopropanol, CAS Registry number 11097-66-8), as the aqueous diluent, to form an aqueous spray solution which contains a predetermined concentration of the active ingredient (which varies depending on the application rate of the active ingredient to the plants) and 0.2% v/v of the adjuvant X-77. This aqueous spray solution is then sprayed onto the plants, after one day's cultivation (for pre-emergence) or after about 12 days' cultivation (for post-emergence).
(§3) The test plants are then grown on, in a glasshouse (greenhouse) under controlled conditions (at either 24/18° C. or 20/16° C. (day/night) as mentioned above; 16 hours light; 65% humidity) and are watered twice daily. Either 15 days after application of the test compound (15 DAA) (for post-emergence), or 20 days after application of the test compound (20 DAA) (for pre-emergence), the test plants are evaluated visually, and an assessed percentage phytotoxicity score is given for each compound application on each plant species (where 100%=total damage to plant; 0%=no damage to plant).
(§4) Cool climate crop plants: Triticum aestivum (TRZAW, winter wheat), Brassica napus (BRSNN, rape, also called oilseed rape or rapeseed), Beta vulgaris (BEAVA, sugar beet). Warm climate crop plants: Glycine max (GLXMA, soybean). Cool climate (“cool season”) grassy monocotyledonous weeds: Alopecurus myosuroides (ALOMY), Avena fatua (AVEFA), Lolium perenne (LOLPE). Warm climate (“warm season”) grassy monocotyledonous weeds: Setaria faberi (SETFA), SORVU (Sorghum bicolor (L.) Moench ssp. Bicolor, or Sorghum vulgare Pers.), Digitaria sanguinalis (DIGSA), Echinochloa crus-galli (ECHCG), and Brachiaria plantaginea (BRAPL).

[5] = tested on: Beta vulgaris (BEAVA, sugar beet); assay: as above
Method: as §1, §2, §3, §4

[6] = tested on: Brachiaria plantaginea (BRAPL); assay: as above
Method: as §1, §2, §3, §4

[7] = tested on: Brassica napus (BRSNN, rape); assay: as above
Method: as §1, §2, §3, §4

[8] = tested on: Digitaria sanguinalis (DIGSA); assay: as above
Method: as §1, §2, §3, §4

[9] = tested on: Echinochloa crus-galli (ECHCG); assay: as above
Method: as §1, §2, §3, §4

[10] = tested on: Glycine max (GLXMA, soybean); assay: as above
Method: as §1, §2, §3, §4

[11] = tested on: Lolium perenne (LOLPE); assay: as above
Method: as §1, §2, §3, §4

[12] = tested on: SORVU (Sorghum bicolor (L.) Moench ssp. Bicolor, or Sorghum vulgare Pers.); assay: as above
Method: as §1, §2, §3, §4

[13] = tested on: Setaria faberi (SETFA); assay: as above
Method: as §1, §2, §3, §4

[14] = tested on: Triticum aestivum (TRZAW, winter wheat); assay: as above
Method: as §1, §2, §3, §4

## CC#Cc1cc(C)c(-c2c(OC(=O)C(C)(C)C)n(C)n(C)c2=O)c(C)c1 [Compound P1]
[1]
  inhibition at 250 g/ha: 100%
[2]
  inhibition at 30 g/ha: 80%
  inhibition at 250 g/ha: 90%
[3]
  inhibition at 30 g/ha: 80%
  inhibition at 250 g/ha: 100%
[4]; 8 g/ha
  Post-Emergence Herbicidal Activity (Percentage Phytotoxicity) ALOMY: 40%
[4]; 30 g/ha
  Post-Emergence Herbicidal Activity (Percentage Phytotoxicity) ALOMY: 60%
[4]; 125 g/ha
  Post-Emergence Herbicidal Activity (Percentage Phytotoxicity) ALOMY: 70%
[5]; 8 g/ha
  Post-Emergence Herbicidal Activity (Percentage Phytotoxicity) BEAVA: 30%
[5]; 30 g/ha
  Post-Emergence Herbicidal Activity (Percentage Phytotoxicity) BEAVA: 10%
[5]; 125 g/ha
  Post-Emergence Herbicidal Activity (Percentage Phytotoxicity) BEAVA: 40%
[6]; 8 g/ha (rate by row order)
  Post-Emergence Herbicidal Activity (Percentage Phytotoxicity) BRAPL: 60%
[6]; 30 g/ha (rate by row order)
  Post-Emergence Herbicidal Activity (Percentage Phytotoxicity) BRAPL: 70%
[6]; 125 g/ha (rate by row order)
  Post-Emergence Herbicidal Activity (Percentage Phytotoxicity) BRAPL: 100%
[7]; 8 g/ha
  Post-Emergence Herbicidal Activity (Percentage Phytotoxicity) BRSNN: 0%
[7]; 30 g/ha
  Post-Emergence Herbicidal Activity (Percentage Phytotoxicity) BRSNN: 80%
[7]; 125 g/ha
  Post-Emergence Herbicidal Activity (Percentage Phytotoxicity) BRSNN: 80%
[8]; 8 g/ha (rate by row order)
  Post-Emergence Herbicidal Activity (Percentage Phytotoxicity) DIGSA: 80%
[8]; 30 g/ha (rate by row order)
  Post-Emergence Herbicidal Activity (Percentage Phytotoxicity) DIGSA: 90%
[8]; 125 g/ha (rate by row order)
  Post-Emergence Herbicidal Activity (Percentage Phytotoxicity) DIGSA: 100%
[9]; 8 g/ha (rate by row order)
  Post-Emergence Herbicidal Activity (Percentage Phytotoxicity) ECHCG: 20%
[9]; 30 g/ha (rate by row order)
  Post-Emergence Herbicidal Activity (Percentage Phytotoxicity) ECHCG: 70%
[9]; 125 g/ha (rate by row order)
  Post-Emergence Herbicidal Activity (Percentage Phytotoxicity) ECHCG: 100%
[10]; 8 g/ha
  Post-Emergence Herbicidal Activity (Percentage Phytotoxicity) GLXMA: 10%
[10]; 30 g/ha
  Post-Emergence Herbicidal Activity (Percentage Phytotoxicity) GLXMA: 30%
[10]; 125 g/ha
  Post-Emergence Herbicidal Activity (Percentage Phytotoxicity) GLXMA: 40%
[11]; 8 g/ha
  Post-Emergence Herbicidal Activity (Percentage Phytotoxicity) LOLPE: 30%
[11]; 30 g/ha
  Post-Emergence Herbicidal Activity (Percentage Phytotoxicity) LOLPE: 50%
[11]; 125 g/ha
  Post-Emergence Herbicidal Activity (Percentage Phytotoxicity) LOLPE: 80%
[12]; 8 g/ha (rate by row order)
  Post-Emergence Herbicidal Activity (Percentage Phytotoxicity) SORVU: 50%
[12]; 30 g/ha (rate by row order)
  Post-Emergence Herbicidal Activity (Percentage Phytotoxicity) SORVU: 60%
[12]; 125 g/ha (rate by row order)
  Post-Emergence Herbicidal Activity (Percentage Phytotoxicity) SORVU: 80%
[13]; 8 g/ha (rate by row order)
  Post-Emergence Herbicidal Activity (Percentage Phytotoxicity) SETFA: 20%
[13]; 30 g/ha (rate by row order)
  Post-Emergence Herbicidal Activity (Percentage Phytotoxicity) SETFA: 90%
[13]; 125 g/ha (rate by row order)
  Post-Emergence Herbicidal Activity (Percentage Phytotoxicity) SETFA: 100%
[14]; 8 g/ha
  Post-Emergence Herbicidal Activity (Percentage Phytotoxicity) TRZAW: 0%
[14]; 30 g/ha
  Post-Emergence Herbicidal Activity (Percentage Phytotoxicity) TRZAW: 0%
[14]; 125 g/ha
  Post-Emergence Herbicidal Activity (Percentage Phytotoxicity) TRZAW: 70%

## CC#Cc1cc(C)c(-c2c(OC(=O)C(C)(C)C)n3n(c2=O)CCOCC3)c(C)c1 [Compound P4]
[1]
  inhibition at 250 g/ha: 100%
[2]
  inhibition at 30 g/ha: 70%
  inhibition at 250 g/ha: 90%
[3]
  inhibition at 30 g/ha: 100%
  inhibition at 250 g/ha: 100%
[4]; 8 g/ha
  Post-Emergence Herbicidal Activity (Percentage Phytotoxicity) ALOMY: 20%
[4]; 30 g/ha
  Post-Emergence Herbicidal Activity (Percentage Phytotoxicity) ALOMY: 60%
[4]; 125 g/ha
  Post-Emergence Herbicidal Activity (Percentage Phytotoxicity) ALOMY: 70%
[5]; 8 g/ha
  Post-Emergence Herbicidal Activity (Percentage Phytotoxicity) BEAVA: 30%
[5]; 30 g/ha
  Post-Emergence Herbicidal Activity (Percentage Phytotoxicity) BEAVA: 40%
[5]; 125 g/ha
  Post-Emergence Herbicidal Activity (Percentage Phytotoxicity) BEAVA: 50%
[6]; 8 g/ha (rate by row order)
  Post-Emergence Herbicidal Activity (Percentage Phytotoxicity) BRAPL: 90%
[6]; 30 g/ha (rate by row order)
  Post-Emergence Herbicidal Activity (Percentage Phytotoxicity) BRAPL: 90%
[6]; 125 g/ha (rate by row order)
  Post-Emergence Herbicidal Activity (Percentage Phytotoxicity) BRAPL: 100%
[7]; 8 g/ha
  Post-Emergence Herbicidal Activity (Percentage Phytotoxicity) BRSNN: 70%
[7]; 30 g/ha
  Post-Emergence Herbicidal Activity (Percentage Phytotoxicity) BRSNN: 80%
[7]; 125 g/ha
  Post-Emergence Herbicidal Activity (Percentage Phytotoxicity) BRSNN: 80%
[8]; 8 g/ha (rate by row order)
  Post-Emergence Herbicidal Activity (Percentage Phytotoxicity) DIGSA: 80%
[8]; 30 g/ha (rate by row order)
  Post-Emergence Herbicidal Activity (Percentage Phytotoxicity) DIGSA: 90%
[8]; 125 g/ha (rate by row order)
  Post-Emergence Herbicidal Activity (Percentage Phytotoxicity) DIGSA: 90%
[9]; 8 g/ha (rate by row order)
  Post-Emergence Herbicidal Activity (Percentage Phytotoxicity) ECHCG: 60%
[9]; 30 g/ha (rate by row order)
  Post-Emergence Herbicidal Activity (Percentage Phytotoxicity) ECHCG: 90%
[9]; 125 g/ha (rate by row order)
  Post-Emergence Herbicidal Activity (Percentage Phytotoxicity) ECHCG: 100%
[10]; 8 g/ha
  Post-Emergence Herbicidal Activity (Percentage Phytotoxicity) GLXMA: 50%
[10]; 30 g/ha
  Post-Emergence Herbicidal Activity (Percentage Phytotoxicity) GLXMA: 60%
[10]; 125 g/ha
  Post-Emergence Herbicidal Activity (Percentage Phytotoxicity) GLXMA: 70%
[11]; 8 g/ha
  Post-Emergence Herbicidal Activity (Percentage Phytotoxicity) LOLPE: 30%
[11]; 30 g/ha
  Post-Emergence Herbicidal Activity (Percentage Phytotoxicity) LOLPE: 40%
[11]; 125 g/ha
  Post-Emergence Herbicidal Activity (Percentage Phytotoxicity) LOLPE: 50%
[12]; 8 g/ha (rate by row order)
  Post-Emergence Herbicidal Activity (Percentage Phytotoxicity) SORVU: 70%
[12]; 30 g/ha (rate by row order)
  Post-Emergence Herbicidal Activity (Percentage Phytotoxicity) SORVU: 80%
[12]; 125 g/ha (rate by row order)
  Post-Emergence Herbicidal Activity (Percentage Phytotoxicity) SORVU: 100%
[13]; 8 g/ha (rate by row order)
  Post-Emergence Herbicidal Activity (Percentage Phytotoxicity) SETFA: 70%
[13]; 30 g/ha (rate by row order)
  Post-Emergence Herbicidal Activity (Percentage Phytotoxicity) SETFA: 80%
[13]; 125 g/ha (rate by row order)
  Post-Emergence Herbicidal Activity (Percentage Phytotoxicity) SETFA: 90%
[14]; 8 g/ha
  Post-Emergence Herbicidal Activity (Percentage Phytotoxicity) TRZAW: 10%
[14]; 30 g/ha
  Post-Emergence Herbicidal Activity (Percentage Phytotoxicity) TRZAW: 40%
[14]; 125 g/ha
  Post-Emergence Herbicidal Activity (Percentage Phytotoxicity) TRZAW: 80%
